The record followed here is patent publication US20230248834A1, “DEGRADATION OF (EGFR) BY CONJUGATION OF EGFR INHIBITORS WITH E3 LIGASE LIGAND AND METHODS OF USE” (BEIGENE, LTD., priority 2020, published 2023).

Structures are written as SMILES.

The term Dmax denotes the greatest extent of degradation seen.

Test [1] concerns the target T1, EGFR L858R/T790M/C797S (Homo sapiens, UniProt P00533, C797S/L858R/T790M).
T1 construct: expressed in transfected cells; host or cells: BaF3-LTC
Put plainly: EGFR degradation HTRF assay in BaF3-LTC cells. Particulars: BaF3-LTC (L858R/T790M/C797S), maximum percentage of inhibition (degradation); read-out: BaF3-LTC Dmax (%). In kind it is cell-based. On the procedure: (§1) BaF3-LTC(L858R/T790M/C797S) cells and BaF3 LC(L858R/C797S) cells are treated with compounds diluted in 0.2% DMSO cell culture medium and incubate for 16 h, 37° C., 5% CO2. the final concentration of compounds in all assay is start with 10 uM, 5-fold dilution, total 8 doses were included.
(§2) After 16 h treatment, add HTRF lysis buffer to each well; seal the plate and incubate 1 hour at room temperature on a plate shaker; Once the cells are lysed, 16 μL of cell lysate are transferred to a PE 384-well HTRF detection plate; 4 μL of pre-mixed HTRF antibodies are added to each well; Cover the plate with a plate sealer, spin 1000 rpm for 1 min, Incubate overnight at room temperature; Read on BMG PheraStar with HTRF protocol (337 nm-665 nm-620 nm).
(§3) The inhibition (degradation) percentage of the compound was calculated by the following equation: Inhibition percentage of Compound=100−100×(Signal−low control)/(High control−low control), wherein signal=each test compound group
(§4) High control=Cell group with added DMSO and without compound, indicating microplate readings without EGFR degradation;
(§5) Dmax is the maximum percentage of inhibition (degradation).
(§6) The IC50 (DC50) value of a compound can be obtained by fitting the following equation
(§7) Y=Bottom+(TOP−Bottom)/(1+((IC50/X)^hillslope))
(§8) Wherein, X and Y are known values, and IC50, Hillslope, Top and Bottom are the parameters obtained by fitting with software. Y is the inhibition percentage (calculated from the equation), X is the concentration of the compound; IC50 is the concentration of the compound when the 50% inhibition is reached. The smaller the IC50 value is, the stronger the inhibitory ability of the compound is. Vice versa, the higher the IC50 value is, the weaker the inhibitory ability of the compound is; Hillslope represents the slope of the fitted curve, generally around 1*; Bottom represents the minimum value of the curve obtained by data fitting, which is generally 0%±20%; Top represents the maximum value of the curve obtained by data fitting, which is generally 100%±20%. The experimental data were fitted by calculating and analyzing with Dotmatics data analysis software.
A general note: In TR-FRET formats the signal depends on donor and acceptor labels being close together.

Test [2] concerns the target T2, EGFR L858R/C797S (Homo sapiens, UniProt P00533, C797S/L858R).
T2 construct: expressed in transfected cells; host or cells: BaF3 LC
Put plainly: EGFR degradation HTRF assay in BaF3 LC cells. Format: cell-based. Particulars: BaF3 LC (L858R/C797S), maximum percentage of inhibition (degradation); read-out: BaF3 LC Dmax (%). The method, then:
as §1, §2, §3, §4, §5, §6, §7, §8

T1 sequence (P00533 25-1210 T790M/C797S/L858R): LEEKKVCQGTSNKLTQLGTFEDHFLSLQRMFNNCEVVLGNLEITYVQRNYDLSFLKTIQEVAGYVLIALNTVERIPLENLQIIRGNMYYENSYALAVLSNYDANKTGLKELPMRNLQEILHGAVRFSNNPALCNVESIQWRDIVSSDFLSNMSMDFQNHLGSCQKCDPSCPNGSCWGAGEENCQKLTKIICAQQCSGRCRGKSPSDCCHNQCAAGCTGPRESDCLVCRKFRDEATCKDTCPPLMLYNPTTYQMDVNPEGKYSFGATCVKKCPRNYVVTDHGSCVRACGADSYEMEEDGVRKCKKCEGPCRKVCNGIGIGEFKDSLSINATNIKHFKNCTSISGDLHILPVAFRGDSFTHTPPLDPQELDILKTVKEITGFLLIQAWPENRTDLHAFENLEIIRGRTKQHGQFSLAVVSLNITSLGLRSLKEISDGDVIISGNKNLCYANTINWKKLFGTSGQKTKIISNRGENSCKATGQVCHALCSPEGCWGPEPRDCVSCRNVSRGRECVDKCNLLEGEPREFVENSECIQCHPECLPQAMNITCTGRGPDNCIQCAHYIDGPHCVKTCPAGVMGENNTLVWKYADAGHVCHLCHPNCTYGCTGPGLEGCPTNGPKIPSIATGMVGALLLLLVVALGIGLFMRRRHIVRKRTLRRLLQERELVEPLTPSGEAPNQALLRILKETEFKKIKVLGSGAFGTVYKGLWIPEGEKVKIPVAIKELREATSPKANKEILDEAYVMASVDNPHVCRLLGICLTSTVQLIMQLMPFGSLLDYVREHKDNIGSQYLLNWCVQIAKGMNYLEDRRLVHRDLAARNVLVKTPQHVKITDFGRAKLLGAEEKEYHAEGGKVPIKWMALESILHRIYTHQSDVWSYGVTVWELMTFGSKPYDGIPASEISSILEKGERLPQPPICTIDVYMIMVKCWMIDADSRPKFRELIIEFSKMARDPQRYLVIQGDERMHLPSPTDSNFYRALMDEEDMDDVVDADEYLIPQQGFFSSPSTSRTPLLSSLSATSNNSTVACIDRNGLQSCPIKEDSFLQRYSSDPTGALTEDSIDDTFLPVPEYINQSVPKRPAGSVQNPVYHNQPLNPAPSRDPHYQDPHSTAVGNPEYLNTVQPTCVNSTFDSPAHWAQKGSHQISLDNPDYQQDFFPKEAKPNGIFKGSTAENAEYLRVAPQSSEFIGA
T2 sequence (P00533 25-1210 C797S/L858R): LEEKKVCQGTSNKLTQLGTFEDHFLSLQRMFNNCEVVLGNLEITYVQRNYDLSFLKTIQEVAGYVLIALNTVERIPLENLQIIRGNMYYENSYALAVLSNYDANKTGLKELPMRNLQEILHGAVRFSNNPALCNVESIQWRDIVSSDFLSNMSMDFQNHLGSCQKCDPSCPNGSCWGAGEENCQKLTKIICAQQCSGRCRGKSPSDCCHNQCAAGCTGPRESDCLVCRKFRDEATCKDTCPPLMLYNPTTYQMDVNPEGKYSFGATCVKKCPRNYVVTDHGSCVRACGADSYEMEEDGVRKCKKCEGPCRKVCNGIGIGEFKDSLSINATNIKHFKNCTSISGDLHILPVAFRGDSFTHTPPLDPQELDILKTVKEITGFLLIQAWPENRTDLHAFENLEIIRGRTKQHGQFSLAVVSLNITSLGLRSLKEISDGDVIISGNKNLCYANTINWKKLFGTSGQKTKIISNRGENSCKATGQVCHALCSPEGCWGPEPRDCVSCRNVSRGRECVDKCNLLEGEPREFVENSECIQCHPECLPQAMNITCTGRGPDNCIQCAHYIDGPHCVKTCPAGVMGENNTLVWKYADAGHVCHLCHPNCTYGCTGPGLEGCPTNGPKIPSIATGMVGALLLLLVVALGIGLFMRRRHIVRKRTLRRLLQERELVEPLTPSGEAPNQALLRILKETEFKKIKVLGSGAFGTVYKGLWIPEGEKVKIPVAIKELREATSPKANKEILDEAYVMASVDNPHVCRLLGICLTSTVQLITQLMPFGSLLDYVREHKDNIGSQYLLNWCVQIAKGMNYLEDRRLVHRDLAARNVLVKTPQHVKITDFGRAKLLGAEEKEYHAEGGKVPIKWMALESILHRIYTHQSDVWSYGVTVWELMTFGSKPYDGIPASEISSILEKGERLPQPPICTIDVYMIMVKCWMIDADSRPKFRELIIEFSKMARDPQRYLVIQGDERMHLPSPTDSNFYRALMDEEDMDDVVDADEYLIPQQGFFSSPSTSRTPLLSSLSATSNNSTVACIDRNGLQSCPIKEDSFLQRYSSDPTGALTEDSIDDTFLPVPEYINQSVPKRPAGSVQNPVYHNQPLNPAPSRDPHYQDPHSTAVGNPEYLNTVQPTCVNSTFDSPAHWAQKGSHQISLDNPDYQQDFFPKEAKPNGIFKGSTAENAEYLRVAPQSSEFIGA

As for `CCOc1cc(N2CCC(N3CCN(CCc4cc(F)c([C@H]5CCC(=O)NC5=O)c(F)c4)CC3)CC2)c(CC)cc1Nc1ncc(Br)c(Nc2ccc3nc(CC)ccc3c2P(C)(C)=O)n1` [Example 483, (R)-3-(4-(2-(4-(1-(4-((5-bromo-4-((5-(dimethylphosphoryl)-2-ethylquinolin-6-yl)amino)pyrimidin-2-yl)amino)-5-ethoxy-2-ethylphenyl)piperidin-4-yl)piperazin-1-yl)ethyl)-2,6-difluorophenyl)piperidine-2,6-dione], the Dmax was 86.9% in test [1] and 83.2% in test [2].

With `CCc1ccc2c(P(C)(C)=O)c(Nc3nc(Nc4cc(CC)c(N5CCC(N6CCN(CCc7ccc8c(c7)oc(=O)n8C7CCC(=O)NC7=O)CC6)CC5)cc4OC)ncc3Br)ccc2n1` (centres unmarked) [Example 491, 3-(6-(2-(4-(1-(4-((5-bromo-4-((5-(dimethylphosphoryl)-2-ethylquinolin-6-yl)amino)pyrimidin-2-yl)amino)-2-ethyl-5-methoxyphenyl)piperidin-4-yl)piperazin-1-yl)ethyl)-2-oxobenzo[d]oxazol-3(2H)-yl)piperidine-2,6-dione], the Dmax in test [1] was found to be 92.7%; in test [2] it was 94.7%.

In the case of `CCc1ccc2c(P(C)(C)=O)c(Nc3nc(Nc4cc(C)c(N5CCC(N6CCN(CCc7cccc8c7n(C)c(=O)n8C7CCC(=O)NC7=O)CC6)CC5)cc4OC4CC4)ncc3Br)ccc2n1` (centres unmarked) [Example 584, 3-(4-(2-(4-(1-(4-((5-bromo-4-((5-(dimethylphosphoryl)-2-ethylquinolin-6-yl)amino)pyrimidin-2-yl)amino)-5-cyclopropoxy-2-methylphenyl)piperidin-4-yl)piperazin-1-yl)ethyl)-3-methyl-2-oxo-2,3-dihydro-1H-benzo[d]imidazol-1-yl)piperidine-2,6-dione], the Dmax in test [1] came to 95.6%; in test [2] it was 92.8%.

Consider `CCOc1cc(N2CCC(N3CCN(CCc4cccc5c4oc(=O)n5C4CCC(=O)NC4=O)CC3)CC2)c(CC)cc1Nc1ncc(Br)c(Nc2cc(F)c3nc(CC)ccc3c2P(C)(C)=O)n1` (centres unmarked) [Example 493, 3-(7-(2-(4-(1-(4-((5-bromo-4-((5-(dimethylphosphoryl)-2-ethyl-8-fluoroquinolin-6-yl)amino)pyrimidin-2-yl)amino)-5-ethoxy-2-ethylphenyl)piperidin-4-yl)piperazin-1-yl)ethyl)-2-oxobenzo[d]oxazol-3(2H)-yl)piperidine-2,6-dione], for which the maximal degradation (Dmax) in test [1] worked out at 95.2%; in test [2], 87.1%.

In the case of `CCOc1cc(N2CCC(N3CCN(CCc4cccc5c4C(C)(C)C(=O)N5C4CCC(=O)NC4=O)CC3)CC2)c(CC)cc1Nc1ncc(Br)c(Nc2ccc3nc(CC)ccc3c2P(C)(C)=O)n1` (centres unmarked) [Example 572, 3-(4-(2-(4-(1-(4-((5-bromo-4-((5-(dimethylphosphoryl)-2-ethylquinolin-6-yl)amino)pyrimidin-2-yl)amino)-5-ethoxy-2-ethylphenyl)piperidin-4-yl)piperazin-1-yl)ethyl)-3,3-dimethyl-2-oxoindolin-1-yl)piperidine-2,6-dione], the Dmax turned out to be 90.3% in test [1] and 91.8% in test [2].

`CCc1cc(Nc2ncc(Br)c(Nc3ccc4nc(C)c(F)cc4c3P(C)(C)=O)n2)c(OC)cc1N1CCC(N2CCN(C(=O)[C@H]3CN(c4cc(F)c([C@H]5CCC(=O)NC5=O)c(F)c4)CC3(C)C)CC2)CC1` [Example 576, (R)-3-(4-((R)-4-(4-(1-(4-((5-bromo-4-((5-(dimethylphosphoryl)-3-fluoro-2-methylquinolin-6-yl)amino)pyrimidin-2-yl)amino)-2-ethyl-5-methoxyphenyl)piperidin-4-yl)piperazine-1-carbonyl)-3,3-dimethylpyrrolidin-1-yl)-2,6-difluorophenyl)piperidine-2,6-dione]: the Dmax was found to be 92.2% in test [1] and 95.9% in test [2].

Consider `CCc1ccc2c(P(C)(C)=O)c(Nc3nc(Nc4cc(CC)c(N5CCC(N6CCN(C(=O)[C@H]7CN(c8cc(F)c([C@H]9CCC(=O)NC9=O)c(F)c8)CC7(C)C)CC6)CC5)cc4OC)ncc3Br)ccc2n1` [Example 754, (R)-3-(4-((R)-4-(4-(1-(4-((5-bromo-4-((5-(dimethylphosphoryl)-2-ethylquinolin-6-yl)amino)pyrimidin-2-yl)amino)-2-ethyl-5-methoxyphenyl)piperidin-4-yl)piperazine-1-carbonyl)-3,3-dimethylpyrrolidin-1-yl)-2,6-difluorophenyl)piperidine-2,6-dione], for which the Dmax in test [1] is 96.3%; in test [2] it was 87.3%.

Consider `CCOc1cc(N2CCC(N3CCN(CCc4c(F)ccc5c4n(CC)c(=O)n5C4CCC(=O)NC4=O)CC3)CC2)c(CC)cc1Nc1ncc(Br)c(Nc2ccc3c(=O)n(CC)ncc3c2P(C)(C)=O)n1` (centres unmarked) [Example 559, 3-(4-(2-(4-(1-(4-((5-bromo-4-((5-(dimethylphosphoryl)-2-ethyl-1-oxo-1,2-dihydrophthalazin-6-yl)amino)pyrimidin-2-yl)amino)-5-ethoxy-2-ethylphenyl)piperidin-4-yl)piperazin-1-yl)ethyl)-3-ethyl-5-fluoro-2-oxo-2,3-dihydro-1H-benzo[d]imidazol-1-yl)piperidine-2,6-dione], for which the figures for the Dmax in test [1] and in test [2] were 92.4% and 90.4%, respectively.

On to `CCOc1cc(N2CCC(N3CCN(CCc4cc(F)c([C@H]5CCC(=O)NC5=O)c(F)c4)CC3)CC2)c(CC)cc1Nc1ncc(Br)c(Nc2ccc3nc(CC)ncc3c2P(C)(C)=O)n1` [Example 460, (R)-3-(4-(2-(4-(1-(4-((5-bromo-4-((5-(dimethylphosphoryl)-2-ethylquinazolin-6-yl)amino)pyrimidin-2-yl)amino)-5-ethoxy-2-ethylphenyl)piperidin-4-yl)piperazin-1-yl)ethyl)-2,6-difluorophenyl)piperidine-2,6-dione], for which the Dmax is 82.5% in test [1] and 88.2% in test [2].

Regarding `CCc1cc(Nc2ncc(Br)c(Nc3ccc4nc(C)c(F)cc4c3P(C)(C)=O)n2)c(OC)cc1N1CCC(N2CCN(C(=O)[C@@H]3CCN(c4cc(F)c([C@H]5CCC(=O)NC5=O)c(F)c4)C3)CC2)CC1` [Example 488, (R)-3-(4-((R)-3-(4-(1-(4-((5-bromo-4-((5-(dimethylphosphoryl)-3-fluoro-2-methylquinolin-6-yl)amino)pyrimidin-2-yl)amino)-2-ethyl-5-methoxyphenyl)piperidin-4-yl)piperazine-1-carbonyl)pyrrolidin-1-yl)-2,6-difluorophenyl)piperidine-2,6-dione], the values for the Dmax in test [1] and in test [2] were 96.6% and 92.8%, respectively.

In the case of `CCOc1cc(N2CCC(N3CCN(CCc4cc(F)c([C@H]5CCC(=O)NC5=O)c(F)c4)CC3)CC2)c(CC)cc1Nc1ncc(Br)c(Nc2ccc3c(=O)n(C)ncc3c2P(C)(C)=O)n1` [Example 502, (R)-3-(4-(2-(4-(1-(4-((5-bromo-4-((5-(dimethylphosphoryl)-2-methyl-1-oxo-1,2-dihydrophthalazin-6-yl)amino)pyrimidin-2-yl)amino)-5-ethoxy-2-ethylphenyl)piperidin-4-yl)piperazin-1-yl)ethyl)-2,6-difluorophenyl)piperidine-2,6-dione], the Dmax in test [1] worked out at 96.7%; in test [2], 87.6%.

For `CCc1ccc2c(P(C)(C)=O)c(Nc3nc(Nc4cc(CC)c(N5CCC(N6CCN(C(=O)C7CN(c8cc(F)c([C@H]9CCC(=O)NC9=O)c(F)c8)C7)CC6)CC5)cc4OC)ncc3Br)ccc2n1` [Example 755, (R)-3-(4-(3-(4-(1-(4-((5-bromo-4-((5-(dimethylphosphoryl)-2-ethylquinolin-6-yl)amino)pyrimidin-2-yl)amino)-2-ethyl-5-methoxyphenyl)piperidin-4-yl)piperazine-1-carbonyl)azetidin-1-yl)-2,6-difluorophenyl)piperidine-2,6-dione], the Dmax in test [1] was 98.6%; in test [2] it was 91.7%.

Turning to `CCOc1cc(N2CCC(N3CCN(CC4CN(c5cc(F)c([C@H]6CCC(=O)NC6=O)c(F)c5)C4)CC3)CC2)c(CC)cc1Nc1ncc(Br)c(Nc2ccc3c(=O)n(CC)ncc3c2P(C)(C)=O)n1` [Example 551, (R)-3-(4-(3-((4-(1-(4-((5-bromo-4-((5-(dimethylphosphoryl)-2-ethyl-1-oxo-1,2-dihydrophthalazin-6-yl)amino)pyrimidin-2-yl)amino)-5-ethoxy-2-ethylphenyl)piperidin-4-yl)piperazin-1-yl)methyl)azetidin-1-yl)-2,6-difluorophenyl)piperidine-2,6-dione], the maximal degradation (Dmax) came out at 89.7% in test [1] and 86.8% in test [2].
